The text below walks through data of patent US12729181B2, “Compounds, compositions, and methods for modulating calcium ion homeostasis” (The Regents of the University of California, priority 2020, dated 2026).

Molecules are shown by their SMILES.

For this test, the system named is tre^tc318 mutant embryos. Nature of the test: Compound rescue screen: restoration of persistent heartbeat in tremblor embryos. It is filed as in vivo, Zebrafish. The settings on record: for responders at 10 µM / responders at 15 µM / responders at 20 µM: Danio rerio, 48 h; for responders at 10 µM: read-out: Rescue at 10 uM (%); for responders at 15 µM: read-out: Rescue at 15 uM (%); for responders at 20 µM: read-out: Rescue at 20 uM (%); for Rescue at 15 uM (%): 15 uM from 30 hpf; for Rescue at 15 uM (%) / Rescue at 10 uM (%) / Rescue at 20 uM (%): cardiac function by visual inspection at 2 dpf, 10 embryos per well; for Rescue at 10 uM (%): 10 uM from 30 hpf; for Rescue at 20 uM (%): 20 uM from 30 hpf. As for the experimental part:
Zebrafish of the mutant line tremblor (tre^tc318) were maintained and bred as described previously in the literature. C. f. Langenbacher A D, et al., PNAS, 2005, 102(49), 17699-17704.
Exemplary compounds were screened for their ability to partially or completely restore persistent heartbeat in tre^tc318 embryos. 10 tre^tc318 mutant embryos were placed in each well of a 24-well plate and raised in the presence of individual compounds at various concentrations (5, 10, 15 and 20 μM) from 30 hpf. Cardiac function was analyzed by visual inspection at 2 dpf. The hearts of tre^tc318 embryos manifest a chaotic movement resembling cardiac fibrillation with sporadic contractions. Compounds that elicited persistent coordinated cardiac contractions were validated by rescreening at least once on another 10 tre^tc318 mutant embryos.

For `CCOC(=O)C1=CCN(S(=O)(=O)c2ccccc2Cl)C1c1ccc(Br)cc1` (stereo not drawn) [FS042], the responders at 10 µM was found to be 0%.

Consider `CCOC(=O)C1=CCN(S(=O)(=O)c2ccccc2C)C1c1ccc(Br)cc1` (stereo not drawn) [FS039], for which the responders at 10 µM was determined as 33%. Take `CCOC(=O)C1=CCN(S(=O)(=O)c2ccccc2Br)C1c1ccc(Br)cc1` (stereo not drawn) [FS046]: the responders at 10 µM amounted to 60%, the responders at 15 µM came to 10% and the responders at 20 µM turned out to be 10%. Take `CCOC(=O)C1=CCN(S(=O)(=O)c2ccccc2C(=O)OC)C1c1ccc(C)cc1` (stereo not drawn) [FS076]: the responders at 10 µM turned out to be 40%, the responders at 15 µM was found to be 60% and the responders at 20 µM was found to be 10%. `CCOC(=O)C1=CCN(S(=O)(=O)c2ccc(Cl)cc2)C1c1cccc(Br)c1` (stereo not drawn) [FS089]: the responders at 10 µM was 0%. Turning to `CCOC(=O)C1=CCN(S(=O)(=O)c2ccccc2F)C1c1ccc(Cl)c(Cl)c1` (stereo not drawn) [FS034], the responders at 10 µM amounted to 65%, the responders at 15 µM was 30% and the responders at 20 µM was 20%. In the case of `CCOC(=O)C1=CCN(S(C)(=O)=O)C1c1ccc(Cl)cc1` (stereo not drawn) [FS139], the “Rescue at 15 uM (%)” value stood at 0%. With `CCOC(=O)C1=CCN(S(=O)(=O)c2ccccc2Br)C1c1cccc(F)c1` (stereo not drawn) [FS032], the responders at 10 µM is 0%. For `CCOC(=O)C1=CCN(S(=O)(=O)c2ccc(C)cc2)C1c1ccc(C#N)cc1` (stereo not drawn) [FS060], the responders at 10 µM is 80%, the responders at 15 µM was found to be 60% and the responders at 20 µM stood at 0%. As for `CCOC(=O)C1=CCN(S(=O)(=O)c2ccc(F)cc2)C1c1ccc(Cl)cc1` (stereo not drawn) [FS123], the responders at 15 µM was found to be 70%. On to `CCOC(=O)C1=CCN(S(=O)(=O)c2ccccc2)C1c1ccccc1` (stereo not drawn) [FS148], for which the responders at 15 µM came to 56%. Regarding `CCOC(=O)C1=CCN(S(=O)(=O)c2ccc(Br)cc2)C1c1cccc(C)c1` (stereo not drawn) [FS096], the responders at 10 µM stood at 22%. `CCOC(=O)C1=CCN(S(=O)(=O)c2cccc(Cl)c2)C1c1cccc(Br)c1` (stereo not drawn) [FS120]: the responders at 15 µM stood at 56%. As to `CCOC(=O)C1=CCN(S(=O)(=O)c2ccccc2C)C1c1cccc(F)c1` (stereo not drawn) [FS022], the responders at 10 µM turned out to be 0%.

As to `CCOC(=O)C1=CCN(S(=O)(=O)c2ccc(C)cc2)C1c1cccc(Cl)c1` (stereo not drawn) [FS064], the “Rescue at 10 uM (%)” value is 20%. For `CCOC(=O)C1=CCN(S(C)(=O)=O)C1c1ccc(C)cc1` (stereo not drawn) [FS140], the responders at 15 µM was determined as 0%.

Regarding `CCOC(=O)C1=CCN(S(=O)(=O)c2ccc(Br)cc2)C1c1cccc(Cl)c1` (stereo not drawn) [FS093], the responders at 10 µM came out at 0%. The same measure, in the same setting: for `CCOC(=O)C1=CCN(S(=O)(=O)c2ccc(C)cc2)C1c1ccc2c(c1)OCO2` (stereo not drawn) [FS059] the value was 20%. For the compound `CCOC(=O)C1=CCN(S(=O)(=O)c2ccc(C)cc2)C1c1cccs1` (stereo not drawn) [FS147], the responders at 15 µM is 60%.

Take `CCOC(=O)C1=CCN(S(=O)(=O)c2ccc(C)cc2)C1c1ccc(Br)cc1` (stereo not drawn) [FS066]: the “Rescue at 10 uM (%)” value worked out at 11%. With `CCOC(=O)C1=CCN(S(=O)(=O)c2ccc(Br)cc2)C1c1cccc(F)c1` (stereo not drawn) [FS095], the responders at 10 µM was determined as 40%. As to `CCOC(=O)C1=CCN(S(=O)(=O)c2ccccc2F)C1c1cccc(Cl)c1` (stereo not drawn) [FS035], the responders at 10 µM was determined as 0%. For the compound `CCOC(=O)C1=CCN(S(=O)(=O)c2cccc(Br)c2)C1c1ccc(F)cc1` (stereo not drawn) [FS138], the responders at 15 µM stood at 50%.

With `CCOC(=O)C1=CCN(S(=O)(=O)c2ccccc2Cl)C1c1ccc(C)cc1` (stereo not drawn) [FS044], the responders at 10 µM came to 0%. With `CCOC(=O)C1=CCN(S(=O)(=O)c2cccc(Cl)c2)C1c1cccc(F)c1` (stereo not drawn) [FS121], the responders at 15 µM amounted to 56%.

As for `CCOC(=O)C1=CCN(S(=O)(=O)c2ccc(C)cc2)C1c1cccc2ccccc12` (stereo not drawn) [FS068], the “Rescue at 10 uM (%)” value turned out to be 0%, the “Rescue at 15 uM (%)” value is on record as 0% and the “Rescue at 20 uM (%)” value came out at 0%. As for `CCOC(=O)C1=CCN(S(=O)(=O)c2ccccc2[N+](=O)[O-])C1c1ccc(C)cc1` (stereo not drawn) [FS075], the “Rescue at 10 uM (%)” value was 0%. On to `CCOC(=O)C1=CCN(S(=O)(=O)c2cccc(F)c2)C1c1ccc(Cl)cc1` (stereo not drawn) [FS133], for which the responders at 15 µM worked out at 78%.

With `CCOC(=O)C1=CCN(S(=O)(=O)c2ccccc2Br)C1c1cccc(Br)c1` (stereo not drawn) [FS031], the responders at 10 µM worked out at 0%. On to `CCOC(=O)C1=CCN(S(=O)(=O)c2ccc(Br)cc2)C1c1ccc(Cl)cc1` (stereo not drawn) [FS099], for which the responders at 10 µM was found to be 0% and the responders at 15 µM is 33%. Regarding `CCOC(=O)C1=CCN(S(=O)(=O)c2ccc(Br)cc2)C1c1cccc(Br)c1` (stereo not drawn) [FS094], the responders at 10 µM worked out at 11%, the responders at 15 µM worked out at 75% and the responders at 20 µM came out at 25%.

For the compound `CCOC(=O)C1=CCN(S(=O)(=O)c2ccc(Cl)cc2)C1c1ccc(C)cc1` (stereo not drawn) [FS086], the “Rescue at 10 uM (%)” value was 11%. `CCOC(=O)C1=CCN(S(=O)(=O)c2ccccc2Cl)C1c1ccccc1` (stereo not drawn) [FS054]: the responders at 10 µM came out at 0%. As to `CCOC(=O)C1=CCN(S(=O)(=O)c2cccc(Cl)c2)C1c1cccc(C)c1` (stereo not drawn) [FS122], the responders at 15 µM worked out at 33%. In the case of `CCOC(=O)C1=CCN(S(=O)(=O)c2ccccc2Br)C1c1cccc(Cl)c1` (stereo not drawn) [FS030], the responders at 10 µM stood at 0%.

Consider `CCOC(=O)C1=CCN(S(=O)(=O)c2ccccc2Cl)C1c1cccc(Cl)c1` (stereo not drawn) [FS024], for which the responders at 10 µM was 0%. For `CCOC(=O)C1=CCN(S(=O)(=O)c2ccc(C)cc2)C1c1cccc(Br)c1` (stereo not drawn) [FS067], the “Rescue at 10 uM (%)” value came to 20%.

Take `CCOC(=O)C1=CCN(S(=O)(=O)c2ccccc2F)C1c1cccc(Br)c1` (stereo not drawn) [FS036]: the responders at 10 µM worked out at 0%. Regarding `CCOC(=O)C1=CCN(S(=O)(=O)c2ccccc2C)C1c1ccc(Cl)cc1` (stereo not drawn) [FS017], the responders at 10 µM amounted to 25%, the responders at 15 µM was determined as 60% and the responders at 20 µM is 20%. Take `CCOC(=O)C1=CCN(S(=O)(=O)c2ccccc2Cl)C1c1cccc(C)c1` (stereo not drawn) [FS028]: the responders at 10 µM was found to be 0%.

`CCOC(=O)C1=CCN(S(=O)(=O)c2cccc(F)c2)C1c1ccc(Br)cc1` (stereo not drawn) [FS134]: the responders at 15 µM was 60%. `CCOC(=O)C1=CCN(S(=O)(=O)c2ccc(F)cc2)C1c1cccc(Cl)c1` (stereo not drawn) [FS114]: the responders at 15 µM came out at 22%.

Take `CCOC(=O)C1=CCN(S(=O)(=O)c2ccc(F)cc2)C1c1ccc(Br)cc1` (stereo not drawn) [FS124]: the responders at 15 µM is 90%. As to `CCOC(=O)C1=CCN(S(=O)(=O)c2ccccc2Br)C1c1ccccc1` (stereo not drawn) [FS055], the responders at 10 µM was found to be 0%. On to `CCOC(=O)C1=CCN(S(=O)(=O)c2cccc(Br)c2)C1c1ccc(Br)cc1` (stereo not drawn) [FS137], for which the responders at 15 µM turned out to be 0%. For `CCOC(=O)C1=CCN(S(=O)(=O)c2ccc(Cl)cc2)C1c1ccc(Cl)cc1` (stereo not drawn) [FS085], the “Rescue at 10 uM (%)” value is reported as 89%, the “Rescue at 15 uM (%)” value is 80% and the “Rescue at 20 uM (%)” value amounted to 80%. Consider `CCOC(=O)C1=CCN(S(=O)(=O)c2ccccc2C)C1c1cccc(C)c1` (stereo not drawn) [FS025], for which the responders at 10 µM stood at 0%. With `CCOC(=O)C1=CCN(S(=O)(=O)c2ccccc2Cl)C1c1ccc(Cl)cc1` (stereo not drawn) [FS041], the responders at 10 µM worked out at 44%, the responders at 15 µM was found to be 30% and the responders at 20 µM stood at 20%. As for `CCOC(=O)C1=CCN(S(=O)(=O)c2cccc(Cl)c2)C1c1ccc(Cl)c(Cl)c1` (stereo not drawn) [FS118], the responders at 15 µM turned out to be 10%. For `CCOC(=O)C1=CCN(S(=O)(=O)c2ccccc2C)C1c1cccc(Cl)c1` (stereo not drawn) [FS020], the responders at 10 µM turned out to be 0%. In the case of `CCOC(=O)C1=CCN(S(=O)(=O)c2ccc(C)cc2)C1c1ccc(Cl)cc1` (stereo not drawn) [FS063], the “Rescue at 10 uM (%)” value is listed as 40%. For the compound `CCOC(=O)C1=CCN(S(=O)(=O)c2ccccc2)C1c1ccc(C)cc1` (stereo not drawn) [FS077], the “Rescue at 10 uM (%)” value turned out to be 30%.

Consider `CCOC(=O)C1=CCN(S(=O)(=O)c2ccccc2Br)C1c1cccc(C)c1` (stereo not drawn) [FS033], for which the responders at 10 µM is 0%. Regarding `CCOC(=O)C1=CCN(S(=O)(=O)c2ccccc2Br)C1c1ccc(Cl)c(Cl)c1` (stereo not drawn) [FS029], the responders at 10 µM came to 70%, the responders at 15 µM was 10% and the responders at 20 µM was 10%. Consider `CCOC(=O)C1=CCN(S(=O)(=O)c2ccc(F)cc2)C1c1cccc(F)c1` (stereo not drawn) [FS116], for which the responders at 15 µM came out at 11%. Take `CCOC(=O)C1=CCN(S(=O)(=O)c2ccc(Cl)cc2)C1c1ccc(Cl)c(Cl)c1` (stereo not drawn) [FS087]: the responders at 10 µM is 22%, the responders at 15 µM amounted to 0% and the responders at 20 µM came out at 0%.

For the compound `CCOC(=O)C1=CCN(S(=O)(=O)c2cccc(F)c2)C1c1ccc(F)cc1` (stereo not drawn) [FS135], the responders at 15 µM was determined as 50%. Turning to `CCOC(=O)C1=CCN(S(=O)(=O)c2ccccc2Cl)C1c1cccc(F)c1` (stereo not drawn) [FS027], the responders at 10 µM amounted to 0%. `CCOC(=O)C1=CCN(S(=O)(=O)c2ccc(C)cc2)C1c1ccccc1F` (stereo not drawn) [FS062]: the “Rescue at 10 uM (%)” value is recorded as 50%, the “Rescue at 15 uM (%)” value is 90% and the “Rescue at 20 uM (%)” value is 60%.

Take `CCOC(=O)C1=CCN(S(=O)(=O)c2ccc(C)cc2)C1c1ccc(C(=O)OCC)cc1` (stereo not drawn) [FS061]: the responders at 10 µM came out at 40%, the responders at 15 µM is 56% and the responders at 20 µM was 40%. For `CCOC(=O)C1=CCN(S(=O)(=O)c2ccccc2C)C1c1cccc(Br)c1` (stereo not drawn) [FS021], the responders at 10 µM is 10%. As for `CCOC(=O)C1=CCN(S(=O)(=O)c2ccc([N+](=O)[O-])cc2)C1c1ccc(C)cc1` (stereo not drawn) [FS141], the responders at 15 µM was determined as 0%. Consider `CCOC(=O)C1=CCN(S(=O)(=O)c2ccc(Br)cc2)C1c1ccc(F)cc1` (stereo not drawn) [FS101], for which the responders at 10 µM was found to be 20%.
